Laboratory results as given in article PMC10044120, “Potent and selective covalent inhibition of the papain-like protease from SARS-CoV-2” (Nature Communications, 2023).
pIC50: −log10 of the molar value. Read-outs that look alike come from different tables or passages of the source.

Columns and labels:
USP8 = molecular target: T1, USP8 (Homo sapiens, UniProt P40818); assay: biochemical; details: USP8 10 nM, Ub-rhodamine110
T1 construct: USP2c, USP4, USP7, USP8c, USP15, USP30WT, and UCH-L1; purchased LifeSensors, Inc. (Malvern, PA)

SARS-CoV-2 PLpro = SARS-CoV-2 PLpro (Severe acute respiratory syndrome coronavirus 2, UniProt P0DTD1); assay: biochemical; details: PLpro 50 nM, Ub-rhodamine110
UCHL1 = molecular target: T2, UCHL1 (Homo sapiens, UniProt P09936); assay: biochemical; details: UCHL1 10 nM, Ub-rhodamine110
T2 construct: purchased LifeSensors, Inc. (Malvern, PA)

USP2 = molecular target: T3, USP2 (Homo sapiens, UniProt O75604); assay: biochemical; details: USP2 10 nM, Ub-rhodamine110
T3 construct: USP2c, USP4, USP7, USP8c, USP15, USP30WT, and UCH-L1; purchased LifeSensors, Inc. (Malvern, PA)

USP4 = molecular target: T4, USP4 (Homo sapiens, UniProt Q13107); assay: DUB selectivity assay, USP4 (Ub-rhodamine110); format: biochemical
T4 construct: purchased LifeSensors, Inc. (Malvern, PA)
T4 sequence (Q13107 1-963): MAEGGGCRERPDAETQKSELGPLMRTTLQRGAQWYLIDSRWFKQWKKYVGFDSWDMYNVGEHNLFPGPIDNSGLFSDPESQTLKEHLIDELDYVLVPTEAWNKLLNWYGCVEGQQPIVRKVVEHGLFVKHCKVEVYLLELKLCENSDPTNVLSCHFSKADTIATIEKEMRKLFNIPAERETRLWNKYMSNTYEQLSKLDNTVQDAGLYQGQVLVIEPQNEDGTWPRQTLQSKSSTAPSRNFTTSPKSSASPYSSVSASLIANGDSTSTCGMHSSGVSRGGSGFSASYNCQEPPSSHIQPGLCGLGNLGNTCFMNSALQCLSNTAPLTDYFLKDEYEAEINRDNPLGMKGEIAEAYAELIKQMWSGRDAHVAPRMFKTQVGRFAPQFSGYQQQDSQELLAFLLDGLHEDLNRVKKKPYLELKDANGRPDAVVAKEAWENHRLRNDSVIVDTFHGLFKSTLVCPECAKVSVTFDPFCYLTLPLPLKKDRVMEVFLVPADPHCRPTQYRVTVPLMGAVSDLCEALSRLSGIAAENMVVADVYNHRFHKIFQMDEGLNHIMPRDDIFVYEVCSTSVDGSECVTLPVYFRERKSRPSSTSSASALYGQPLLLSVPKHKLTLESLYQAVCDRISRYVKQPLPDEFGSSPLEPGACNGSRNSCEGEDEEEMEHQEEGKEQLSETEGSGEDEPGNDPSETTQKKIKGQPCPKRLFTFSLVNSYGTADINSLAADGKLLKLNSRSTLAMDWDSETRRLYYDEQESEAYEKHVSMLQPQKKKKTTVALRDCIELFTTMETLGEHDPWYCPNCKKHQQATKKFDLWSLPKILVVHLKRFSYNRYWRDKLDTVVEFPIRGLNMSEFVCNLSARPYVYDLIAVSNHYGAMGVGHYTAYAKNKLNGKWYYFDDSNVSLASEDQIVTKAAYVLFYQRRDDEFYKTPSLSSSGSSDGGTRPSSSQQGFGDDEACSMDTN

[1] = Metabolic stability in rat liver microsomes; details: Sprague-Dawley
PLpro from SARS-CoV-2 = PLpro from SARS-CoV-2 (Severe acute respiratory syndrome coronavirus 2, UniProt P0DTD1); assay: biochemical; format: biochemical; parameters: mean (kobs plot, Supplementary Figure 6 II): unit: min^-1
USP30 = molecular target: T5, USP30 (Homo sapiens, UniProt Q70CQ3); assay: biochemical; details: USP30 10 nM, Ub-rhodamine110
T5 construct: purchased LifeSensors, Inc. (Malvern, PA)

[2] = Metabolic stability in human liver S9 fraction

T1 sequence (P40818 777-1109): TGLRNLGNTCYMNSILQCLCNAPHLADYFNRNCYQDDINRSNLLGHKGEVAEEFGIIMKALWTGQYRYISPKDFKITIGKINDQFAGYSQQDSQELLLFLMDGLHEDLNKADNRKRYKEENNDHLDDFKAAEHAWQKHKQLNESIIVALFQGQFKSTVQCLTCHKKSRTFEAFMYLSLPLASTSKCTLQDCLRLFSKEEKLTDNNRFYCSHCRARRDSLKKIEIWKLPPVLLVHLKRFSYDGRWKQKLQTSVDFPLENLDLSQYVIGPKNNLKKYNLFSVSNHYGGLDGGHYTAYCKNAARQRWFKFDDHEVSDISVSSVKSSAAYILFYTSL
T3 sequence (O75604 267-599): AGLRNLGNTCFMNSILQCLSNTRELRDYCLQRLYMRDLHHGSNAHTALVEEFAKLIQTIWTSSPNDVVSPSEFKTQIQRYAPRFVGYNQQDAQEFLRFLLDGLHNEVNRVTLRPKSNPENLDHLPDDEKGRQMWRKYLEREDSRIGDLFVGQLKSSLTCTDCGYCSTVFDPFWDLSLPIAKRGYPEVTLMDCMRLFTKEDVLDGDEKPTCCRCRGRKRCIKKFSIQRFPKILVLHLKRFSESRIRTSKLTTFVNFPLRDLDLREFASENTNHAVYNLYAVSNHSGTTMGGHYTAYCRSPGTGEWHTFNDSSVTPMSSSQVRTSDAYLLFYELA
T5 sequence (Q70CQ3 whole entry): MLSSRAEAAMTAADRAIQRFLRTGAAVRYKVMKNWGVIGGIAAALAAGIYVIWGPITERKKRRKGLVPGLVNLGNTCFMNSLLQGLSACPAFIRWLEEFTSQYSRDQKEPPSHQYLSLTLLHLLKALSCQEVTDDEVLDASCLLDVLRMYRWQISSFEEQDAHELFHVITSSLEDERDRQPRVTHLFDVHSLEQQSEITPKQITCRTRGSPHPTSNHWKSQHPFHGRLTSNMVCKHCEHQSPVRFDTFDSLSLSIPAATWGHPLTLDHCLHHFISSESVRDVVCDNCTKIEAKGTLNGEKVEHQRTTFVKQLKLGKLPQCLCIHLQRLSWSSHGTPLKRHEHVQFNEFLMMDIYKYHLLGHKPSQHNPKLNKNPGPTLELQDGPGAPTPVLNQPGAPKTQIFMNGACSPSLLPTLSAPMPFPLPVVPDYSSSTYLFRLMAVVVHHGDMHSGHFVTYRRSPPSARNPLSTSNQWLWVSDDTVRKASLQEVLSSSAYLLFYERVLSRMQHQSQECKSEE
T2 sequence (P09936 whole entry): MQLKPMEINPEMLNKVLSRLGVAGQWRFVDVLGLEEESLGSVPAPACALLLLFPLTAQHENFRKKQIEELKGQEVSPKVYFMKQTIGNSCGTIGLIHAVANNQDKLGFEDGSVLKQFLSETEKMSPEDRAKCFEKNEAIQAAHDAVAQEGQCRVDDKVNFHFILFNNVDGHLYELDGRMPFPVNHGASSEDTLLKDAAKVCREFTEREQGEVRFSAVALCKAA

With COC(=O)/C=C/C(=O)NNC(=O)CCc1ccccc1C(=O)N[C@H](C)c1cccc2ccccc12 [Compound 7, methyl(R,E)-4-(2-(3-(2-((1-(naphthalen-1 yl)ethyl)carbamoyl)phenyl)propanoyl)hydrazineyl)-4-oxobut-2-enoate] as the molecule, how does the pIC50 (USP8) read?
The pIC50 was less than 4.52.

And the Hill slope (SARS-CoV-2 PLpro)?
The Hill slope was 1.06.

And the pIC50 (UCHL1)?
Its pIC50 is less than 4.52.

What about the pIC50 (USP2) of the same molecule?
The pIC50 was less than 4.52.

What about the pIC50 (USP4) of the same molecule?
Its pIC50 is less than 4.52.

And the half-life [1]?
Its half-life is 46 min.

And the microsomal CLint [1]?
The microsomal CLint was 151 µL/min/mg.

What about the “Kobs, mean” value (PLpro from SARS-CoV-2; 0.10 uM) of the same molecule?
Its value is 0.00424 min⁻¹.

And the “Kobs, mean” value (PLpro from SARS-CoV-2; 0.20 uM)?
Its value is 0.03867 min⁻¹.

And the “Kobs, mean” value (PLpro from SARS-CoV-2; 0.30 uM)?
Its value is 0.09135 min⁻¹.

And the remaining activity at 0.1 µM (PLpro from SARS-CoV-2; 5 min, read-out: PLpro activity after preincubation, inhibitor 0.1 uM, preincubation 5 min)?
The remaining activity at 0.1 µM was 95.7%.

And the remaining activity at 0.2 µM (PLpro from SARS-CoV-2; 5 min, read-out: PLpro activity after preincubation, inhibitor 0.2 uM, preincubation 5 min)?
Its remaining activity at 0.2 µM is 105%.

What about the remaining activity at 0.3 µM (PLpro from SARS-CoV-2; 10 min, read-out: PLpro activity after preincubation, inhibitor 0.3 uM, preincubation 10 min) of the same molecule?
Its remaining activity at 0.3 µM is 30.7%.

What about the remaining activity at 0.3 µM (PLpro from SARS-CoV-2; 0.5 h, read-out: PLpro activity after preincubation, inhibitor 0.3 uM, preincubation 30 min) of the same molecule?
Its remaining activity at 0.3 µM is 17.7%.

What about the remaining activity at 0.1 µM (PLpro from SARS-CoV-2; 1 h, read-out: PLpro activity after preincubation, inhibitor 0.1 uM, preincubation 60 min) of the same molecule?
Its remaining activity at 0.1 µM is 74.1%.

What about the remaining activity at 0.2 µM (PLpro from SARS-CoV-2; 1 h, read-out: PLpro activity after preincubation, inhibitor 0.2 uM, preincubation 60 min) of the same molecule?
The remaining activity at 0.2 µM was 2.6%.

And the remaining activity at 0.1 µM (PLpro from SARS-CoV-2; […], read-out: PLpro activity after preincubation, inhibitor 0.1 uM, preincubation 15 min)?
The remaining activity at 0.1 µM was 104%.

What about the remaining activity at 0.1 µM (PLpro from SARS-CoV-2; […], read-out: PLpro activity after preincubation, inhibitor 0.1 uM, preincubation 45 min) of the same molecule?
The remaining activity at 0.1 µM was 75.3%.

What about the remaining activity at 0.2 µM (PLpro from SARS-CoV-2; […], read-out: PLpro activity after preincubation, inhibitor 0.2 uM, preincubation 15 min) of the same molecule?
Its remaining activity at 0.2 µM is 59.4%.

What about the remaining activity at 0.2 µM (PLpro from SARS-CoV-2; […], read-out: PLpro activity after preincubation, inhibitor 0.2 uM, preincubation 90 min) of the same molecule?
Its remaining activity at 0.2 µM is 0.514%.

And the remaining activity at 0.3 µM (PLpro from SARS-CoV-2; […], read-out: PLpro activity after preincubation, inhibitor 0.3 uM, preincubation 15 min)?
Its remaining activity at 0.3 µM is 26.7%.

What about the “Time dep. (time-dependent inhibition)” value (PLpro from SARS-CoV-2; fluorogenic peptide assay, varied preincubation time) of the same molecule?
The value was “Yes”.

What about the “mean (kobs plot, Supplementary Figure 6 II)” value (PLpro from SARS-CoV-2; inhibitor 0.10 uM) of the same molecule?
Its value is 0.00424.

What about the “mean (kobs plot, Supplementary Figure 6 II)” value (PLpro from SARS-CoV-2; inhibitor 0.20 uM) of the same molecule?
Its value is 0.03867.

And the “mean (kobs plot, Supplementary Figure 6 II)” value (PLpro from SARS-CoV-2; inhibitor 0.30 uM)?
The value was 0.09135.

And the pIC50 (USP30)?
Its pIC50 is less than 4.52.

And the half-life [2]?
Its half-life is 60 min.

What about the microsomal CLint [2] of the same molecule?
The microsomal CLint was 38.9 µL/min/mg.
